Experimental data taken from the supplement of paper PMC10307832.

Legend:
Assay in all cases: relative viability (nuclei count vs DMSO), 5 days (fraction); higher = more cells survive
LU99A = test system: LU99A
Summary of the method: (§1)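 Lung cancer cell lines were pin-tool dosed in 1536-well plates on the day after seeding, with either a lone drug or a fixed anchor-drug dose plus five library-drug doses (not always all listed) in √10 steps. Nuclei were counted on 4× images after 5 days. Relative viability is the ratio of treated-well to vehicle-well nuclei counts, with each value a median of duplicate plates.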

ChaGo-K-1 = test system: ChaGo-K-1
Summary of the method: as §1

NCI-H661 = test system: NCI-H661
Summary of the method: as §1

NCI-H1944 = test system: NCI-H1944
Summary of the method: as §1

SK-MES-1 = test system: SK-MES-1
Summary of the method: as §1

NCI-H358 = test system: NCI-H358
Summary of the method: as §1

NCI-H322M = test system: NCI-H322M
Summary of the method: as §1

HCC-15 = test system: HCC-15
Summary of the method: as §1

LXF-289 = test system: LXF-289
Summary of the method: as §1

BEN = test system: BEN
Summary of the method: as §1

NCI-H2087 = test system: NCI-H2087
Summary of the method: as §1

NCI-H838 = test system: NCI-H838
Summary of the method: as §1

H3255 = test system: H3255
Summary of the method: as §1

NCI-H2342 = test system: NCI-H2342
Summary of the method: as §1

NCI-H650 = test system: NCI-H650
Summary of the method: as §1

LK-2 = test system: LK-2
Summary of the method: as §1

PC-3 [JPC-3] = test system: PC-3 [JPC-3]
Summary of the method: as §1

HCC-78 = test system: HCC-78
Summary of the method: as §1

NCI-H1651 = test system: NCI-H1651
Summary of the method: as §1

NCI-H1666 = test system: NCI-H1666
Summary of the method: as §1

UMC-11 = test system: UMC-11
Summary of the method: as §1

LCLC-97TM1 = test system: LCLC-97TM1
Summary of the method: as §1

LC-2-ad = test system: LC-2-ad
Summary of the method: as §1

NCI-H596 = test system: NCI-H596
Summary of the method: as §1

## Clc1ccc(Nc2nnc(Cc3ccncc3)c3ccccc23)cc1 [Vatalanib] + Cc1cc(Nc2cc(N3CCN(C)CC3)nc(Sc3ccc(NC(=O)C4CC4)cc3)n2)n[nH]1 [Tozasertib] (partner 0.1 µM)
LU99A; first compound 0.04 µM
  relative viability: 0.282
LU99A; first compound 0.1265 µM
  relative viability: 0.289
LU99A; first compound 0.4 µM
  relative viability: 0.305
LU99A; first compound 1.265 µM
  relative viability: 0.266
LU99A; first compound 4 µM
  relative viability: 0.286
ChaGo-K-1; first compound 0.04 µM
  relative viability: 0.241
ChaGo-K-1; first compound 0.1265 µM
  relative viability: 0.231
ChaGo-K-1; first compound 0.4 µM
  relative viability: 0.242
ChaGo-K-1; first compound 1.265 µM
  relative viability: 0.235
ChaGo-K-1; first compound 4 µM
  relative viability: 0.235
NCI-H661; first compound 0.04 µM
  relative viability: 0.357
NCI-H661; first compound 0.1265 µM
  relative viability: 0.363
NCI-H661; first compound 0.4 µM
  relative viability: 0.331
NCI-H661; first compound 1.265 µM
  relative viability: 0.357
NCI-H661; first compound 4 µM
  relative viability: 0.366
NCI-H1944; first compound 0.04 µM
  relative viability: 0.267
NCI-H1944; first compound 0.1265 µM
  relative viability: 0.247
NCI-H1944; first compound 0.4 µM
  relative viability: 0.262
NCI-H1944; first compound 1.265 µM
  relative viability: 0.266
NCI-H1944; first compound 4 µM
  relative viability: 0.235
SK-MES-1; first compound 0.04 µM
  relative viability: 0.951
SK-MES-1; first compound 0.1265 µM
  relative viability: 0.897
SK-MES-1; first compound 0.4 µM
  relative viability: 1.01
SK-MES-1; first compound 1.265 µM
  relative viability: 0.813
SK-MES-1; first compound 4 µM
  relative viability: 0.803
NCI-H358; first compound 0.04 µM
  relative viability: 0.0969
NCI-H358; first compound 0.1265 µM
  relative viability: 0.0902
NCI-H358; first compound 0.4 µM
  relative viability: 0.08
NCI-H358; first compound 1.265 µM
  relative viability: 0.108
NCI-H358; first compound 4 µM
  relative viability: 0.0997
NCI-H322M; first compound 0.04 µM
  relative viability: 0.446
NCI-H322M; first compound 0.1265 µM
  relative viability: 0.441
NCI-H322M; first compound 0.4 µM
  relative viability: 0.553
NCI-H322M; first compound 1.265 µM
  relative viability: 0.479
NCI-H322M; first compound 4 µM
  relative viability: 0.463
HCC-15; first compound 0.04 µM
  relative viability: 0.419
HCC-15; first compound 0.1265 µM
  relative viability: 0.465
HCC-15; first compound 0.4 µM
  relative viability: 0.478
HCC-15; first compound 1.265 µM
  relative viability: 0.446
HCC-15; first compound 4 µM
  relative viability: 0.426
LXF-289; first compound 0.04 µM
  relative viability: 0.201
LXF-289; first compound 0.1265 µM
  relative viability: 0.168
LXF-289; first compound 0.4 µM
  relative viability: 0.229
LXF-289; first compound 1.265 µM
  relative viability: 0.192
LXF-289; first compound 4 µM
  relative viability: 0.212
BEN; first compound 0.04 µM
  relative viability: 0.464
BEN; first compound 0.1265 µM
  relative viability: 0.535
BEN; first compound 0.4 µM
  relative viability: 0.557
BEN; first compound 1.265 µM
  relative viability: 0.439
BEN; first compound 4 µM
  relative viability: 0.412
NCI-H2087; first compound 0.04 µM
  relative viability: 0.254
NCI-H2087; first compound 0.1265 µM
  relative viability: 0.261
NCI-H2087; first compound 0.4 µM
  relative viability: 0.295
NCI-H2087; first compound 1.265 µM
  relative viability: 0.228
NCI-H2087; first compound 4 µM
  relative viability: 0.253
NCI-H838; first compound 0.04 µM
  relative viability: 0.249
NCI-H838; first compound 0.1265 µM
  relative viability: 0.28
NCI-H838; first compound 0.4 µM
  relative viability: 0.302
NCI-H838; first compound 1.265 µM
  relative viability: 0.228
NCI-H838; first compound 4 µM
  relative viability: 0.295
H3255; first compound 0.04 µM
  relative viability: 0.626
H3255; first compound 0.1265 µM
  relative viability: 0.619
H3255; first compound 0.4 µM
  relative viability: 0.637
H3255; first compound 1.265 µM
  relative viability: 0.75
H3255; first compound 4 µM
  relative viability: 0.63
NCI-H2342; first compound 0.04 µM
  relative viability: 0.618
NCI-H2342; first compound 0.1265 µM
  relative viability: 0.532
NCI-H2342; first compound 0.4 µM
  relative viability: 0.492
NCI-H2342; first compound 1.265 µM
  relative viability: 0.465
NCI-H2342; first compound 4 µM
  relative viability: 0.492
NCI-H650; first compound 0.04 µM
  relative viability: 0.81
NCI-H650; first compound 0.1265 µM
  relative viability: 0.655
NCI-H650; first compound 1.265 µM
  relative viability: 0.718
NCI-H650; first compound 4 µM
  relative viability: 0.631
LK-2; first compound 0.04 µM
  relative viability: 0.164
LK-2; first compound 0.1265 µM
  relative viability: 0.161
LK-2; first compound 0.4 µM
  relative viability: 0.173
LK-2; first compound 1.265 µM
  relative viability: 0.182
LK-2; first compound 4 µM
  relative viability: 0.203
PC-3 [JPC-3]; first compound 0.04 µM
  relative viability: 0.876
PC-3 [JPC-3]; first compound 0.1265 µM
  relative viability: 0.864
PC-3 [JPC-3]; first compound 0.4 µM
  relative viability: 0.873
PC-3 [JPC-3]; first compound 1.265 µM
  relative viability: 0.835
PC-3 [JPC-3]; first compound 4 µM
  relative viability: 0.876
HCC-78; first compound 0.04 µM
  relative viability: 0.447
HCC-78; first compound 0.1265 µM
  relative viability: 0.494
HCC-78; first compound 0.4 µM
  relative viability: 0.559
HCC-78; first compound 1.265 µM
  relative viability: 0.436
HCC-78; first compound 4 µM
  relative viability: 0.493
NCI-H1651; first compound 0.04 µM
  relative viability: 0.845
NCI-H1651; first compound 0.1265 µM
  relative viability: 0.668
NCI-H1651; first compound 0.4 µM
  relative viability: 0.701
NCI-H1651; first compound 1.265 µM
  relative viability: 0.667
NCI-H1651; first compound 4 µM
  relative viability: 0.629
NCI-H1666; first compound 0.04 µM
  relative viability: 0.617
NCI-H1666; first compound 0.1265 µM
  relative viability: 0.569
NCI-H1666; first compound 0.4 µM
  relative viability: 0.615
NCI-H1666; first compound 1.265 µM
  relative viability: 0.568
NCI-H1666; first compound 4 µM
  relative viability: 0.55
UMC-11; first compound 0.04 µM
  relative viability: 0.198
UMC-11; first compound 0.1265 µM
  relative viability: 0.206
UMC-11; first compound 0.4 µM
  relative viability: 0.147
UMC-11; first compound 1.265 µM
  relative viability: 0.214
UMC-11; first compound 4 µM
  relative viability: 0.205
LCLC-97TM1; first compound 0.04 µM
  relative viability: 0.301
LCLC-97TM1; first compound 0.1265 µM
  relative viability: 0.196
LCLC-97TM1; first compound 0.4 µM
  relative viability: 0.237
LCLC-97TM1; first compound 1.265 µM
  relative viability: 0.21
LCLC-97TM1; first compound 4 µM
  relative viability: 0.263
LC-2-ad; first compound 0.04 µM
  relative viability: 0.53
LC-2-ad; first compound 0.1265 µM
  relative viability: 0.385
LC-2-ad; first compound 1.265 µM
  relative viability: 0.469
LC-2-ad; first compound 4 µM
  relative viability: 0.425
NCI-H596; first compound 0.04 µM
  relative viability: 0.783
NCI-H596; first compound 0.1265 µM
  relative viability: 0.821
NCI-H596; first compound 0.4 µM
  relative viability: 0.831
NCI-H596; first compound 1.265 µM
  relative viability: 0.747
NCI-H596; first compound 4 µM
  relative viability: 0.952
